Measurements: US10765681B2 (Academia Sinica, priority 2016, dated 2020)
Read-outs that look alike come from different tables or passages of the source.

What was measured:
H1975 lung cancer cells = test: MTT assay, growth of H1975 lung cancer cells; type: cell-based; settings: Homo sapiens
[1] = NCI-H1975, H1975, MTT, Table 2, read-out: IC50 against the growth of H1975 lung cancer cells
[2] = NCI-H1975, read-out: IC50 against the growth of H1975 lung cancer cells
[3] = NCI-H1975, H1975 lung cancer cell line, MTT, Table 3, read-out: IC50 H1975

SMILES | melting point | IC50 (H1975 lung cancer cells; [1]) | further results
NC(=O)c1nc(-c2ccc(O)cc2)nc2c1nc(S)n2-c1ccccc1 | 361 to 363 °C | – | –
C=CCn1c(=O)n(-c2ccccc2OC)c2nc(-c3ccc(OCC)cc3)nc(C#N)c21 | 144 to 146 °C | – | –
COc1ccccc1-n1c(=O)[nH]c2c(C(N)=O)nc(-c3ccc(O)cc3)nc21 [Compound 5b, 2-(4-Hydroxyphenyl)-9-(2-methoxyphenyl)-8-oxopurine-6-carboxamide] | 370.2 to 371.8 °C | – | –
CCCCOc1ccc(-c2nc(C(N)=O)c3[nH]c(=O)n(-c4ccccc4OC)c3n2)cc1 [Compound 5c, 2-(4-Butoxyphenyl)-9-(2-methoxyphenyl)-8-oxopurine-6-carboxamide] | 268.7 to 270.2 °C | 4.66 ± 0.05 µM | –
COC(=O)c1cccc(-n2c(=O)[nH]c3c(C(N)=O)nc(-c4ccc(OC)c(O)c4)nc32)c1 [Compound 5j, 2-(3-Hydroxy-4-methoxyphenyl)-9-(3-methoxycarbonylphenyl)-8-oxopurine-6-carboxamide] | 333.3 to 334.3 °C | – | IC50 (H1975 lung cancer cells; [2]): 0.35 ± 0.01 µM
CCOc1ccc(-c2nc(C(N)=O)c3[nH]c(=O)n(-c4cccc([N+](=O)[O-])c4)c3n2)cc1 [Compound 5l, 2-(4-Ethoxyphenyl)-9-(3-nitrophenyl)-8-oxopurine-6-carboxamide] | 322.8 to 324.3 °C | – | –
CCOc1ccc(-c2nc(C(N)=O)c3[nH]c(=O)n(-c4cc(C(F)(F)F)cc(C(F)(F)F)c4)c3n2)cc1 [Compound 5m, 9-(3,5-Bis(trifluoromethyl)phenyl)-2-(4-ethoxyphenyl)-8-oxopurine-6-carboxamide] | 288 to 290 °C | – | –
COc1ccc(-c2nc(C(N)=O)c3[nH]c(=O)n(-c4ccccc4OC)c3n2)cc1O [Compound 5n, 2-(3-Hydroxy-4-methoxyphenyl)-9-(2-methoxyphenyl)-8-oxopurine-6-carboxamide] | 319 to 321 °C | – | –
CCOc1ccc(-c2nc(C(N)=O)c3[nH]c(=O)n(-c4cccc(C(=O)O)c4)c3n2)cc1 [Compound 6e, 2-(4-Ethoxyphenyl)-9-(3-carboxy)phenyl-8-oxopurine-6-carboxamide] | – | 7.91 ± 0.18 µM | –
CCCCCCNC(=O)c1cccc(-n2c(=O)[nH]c3c(C(N)=O)nc(-c4ccc(OCC)cc4)nc32)c1 [Compound 8a, 2-(4-Ethoxyphenyl)-9-(3-hexylcarbamoyl)phenyl-8-oxopurine-6-carboxamide] | – | 0.49 ± 0.1 µM | –
CCCCCCCCCCCCNC(=O)c1cccc(-n2c(=O)[nH]c3c(C(N)=O)nc(-c4ccc(OCC)cc4)nc32)c1 [Compound 8b, 2-(4-Ethoxyphenyl)-9-(3-dodecylcarbamoyl)phenyl-8-oxopurine-6-carboxamide] | – | 10.5 ± 0.25 µM | –
CCOc1ccc(-c2nc(C(N)=O)c3[nH]c(=O)n(-c4cccc(C(=O)NCCCCCN=[N+]=[N-])c4)c3n2)cc1 [Compound 8c, 2-(4-Ethoxyphenyl)-9-[3-(5-azidopentylcarbamoyl)]phenyl-8-oxopurine-6-carboxamide] | – | 0.39 ± 0.01 µM | –
CCOc1ccc(-c2nc(C(N)=O)c3[nH]c(=O)n(-c4cccc(C(=O)NCCCCCNC(=O)OC(C)(C)C)c4)c3n2)cc1 [Compound 8d, 2-(4-Ethoxyphenyl)-9-[3-(5-tert-butoxycarbonylamino)pentylcarbamoyl]phenyl-8-oxopurine-6-carboxamide] | – | 15.5 ± 1.96 µM | –
CCOc1ccc(-c2nc(C(N)=O)c3[nH]c(=O)n(-c4cccc(C(=O)NCCCCCNC(=O)CCCC[C@@H]5SC[C@@H]6NC(=O)N[C@@H]65)c4)c3n2)cc1 [Compound 8f] | – | – | IC50 (H1975 lung cancer cells; [2]): 26.3 ± 0.31 µM
CCOc1ccc(-c2nc(C(N)=O)c3nc(S)n(-c4ccccc4)c3n2)cc1 [Compound 10a, 2-(4-Ethoxyphenyl)-9-phenyl-8-mercaptopurine-6-carboxamide] | 321.2 to 321.8 °C (dec.) | – | –
COc1ccc(-c2nc(C(N)=O)c3nc(S)n(-c4ccccc4)c3n2)cc1O [Compound 10b, 2-(3-Hydroxy-4-methoxyphenyl)-8-mercapto-9-phenylpurine-6-carboxamide] | 368.9 to 369.7 °C (dec.) | – | IC50 (H1975 lung cancer cells; [2]): 0.24 ± 0.04 µM
CCOc1ccc(-c2nc(C(N)=O)c3nc(S)n(-c4cc(C(F)(F)F)cc(C(F)(F)F)c4)c3n2)cc1 [Compound 10c, 9-(3,5-Bis(trifluoromethyl)phenyl)-2-(4-ethoxyphenyl)-8-mercaptopurine-6-carboxamide] | 299 to 301 °C | – | –
CCOc1ccc(-c2nc(C(N)=O)c3nc(SC)n(-c4ccccc4)c3n2)cc1 [Compound 11a, 2-(4-Ethoxyphenyl)-8-(methylthio)-9-phenylpurine-6-carboxamide] | 309.7 to 311 °C (dec.) | – | –
CCCCSc1nc2c(C(N)=O)nc(-c3ccc(OCC)cc3)nc2n1-c1ccccc1 [Compound 11b, 8-(Butylthio)-2-(4-ethoxyphenyl)-9-phenylpurine-6-carboxamide] | – | 6.37 ± 0.51 µM | –

SMILES | melting point | IC50 (H1975 lung cancer cells; [1]) | further results
CCOc1ccc(-c2nc(C(N)=O)c3nc(SCC(=O)N4CCN(C(=O)OC(C)(C)C)CC4)n(-c4ccccc4)c3n2)cc1 [Compound 11d, 2-(4-Ethoxyphenyl)-9-phenyl-8-{[(4-tert-butoxycarbonyl)piperazinocarbonyl]methylthio}purine-6-carb oxamide] | – | 1.8 µM | –
CCOc1ccc(-c2nc(C(N)=O)c3nc(SCC(=O)OC)n(-c4ccccc4)c3n2)cc1 [Compound 11f, 2-(4-Ethoxyphenyl)-8-(methoxycarbonylmethylthio)-9-phenylpurine-6-carb oxamide] | – | 2.1 µM | –
CCOc1ccc(-c2nc(C(N)=O)c3nc(SCC(=O)O)n(-c4ccccc4)c3n2)cc1 [Compound 11g, 8-(Carboxymethylthio)-2-(4-ethoxyphenyl)-9-phenylpurine-6-carboxamide] | – | 3.94 ± 0.06 µM | –
CCOc1ccc(-c2nc(C#N)c3[nH]c(=O)n(-c4ccccc4OC)c3n2)cc1 [Compound 12a, 2-(4-Ethoxyphenyl)-9-(2-methoxyphenyl)-8-oxopurine-6-carbonitrile] | 288 to 290 °C | – | –
CCOc1ccc(-c2nc(C#N)c3[nH]c(=O)n(-c4cccc(C(=O)OC)c4)c3n2)cc1 [Compound 12c, 2-(4-Ethoxyphenyl)-9-(3-methoxycarbonylphenyl)-8-oxopurine-6-carbonitrile] | 297 to 299 °C | – | –
COc1ccc(-c2nc(C#N)c3[nH]c(=O)n(-c4ccccc4OC)c3n2)cc1O [Compound 12f, 2-(3-Hydroxy-4-methoxyphenyl)-9-(2-methoxyphenyl)-8-oxopurine-6-carbonitrile] | 294 to 296 °C | 25.8 µM | IC50 (H1975 lung cancer cells; [3]): 25.8 µM
CCOc1ccc(-c2nc(C(=N)NO)c3[nH]c(=O)n(-c4cccc(C(=O)OC)c4)c3n2)cc1 [Compound 14c, 2-(4-Ethoxyphenyl)-9-(3-methoxycarbonylphenyl)-8-oxopurine-6-(N-hydroxy)carboximidamide] | 257 to 259 °C | – | –
COc1ccc(-c2nc(C(=N)NO)c3[nH]c(=O)n(-c4ccccc4OC)c3n2)cc1O [Compound 14f, 2-(3-Hydroxy-4-methoxyphenyl)-9-(2-methoxyphenyl)-8-oxopurine-6-(N-hydroxy)carboximidamide] | 226 to 228 °C | 2.8 µM | IC50 (H1975 lung cancer cells; [3]): 2.8 µM
CCOc1ccc(-c2nc(C#N)c3c(n2)n(-c2ccccc2OC)c(=O)n3C)cc1 [Compound 15a, 2-(4-Ethoxyphenyl)-9-(2-methoxyphenyl)-7-methyl-8-oxopurine-6-carbonitrile] | 235 to 237 °C | – | –
CCOc1ccc(-c2nc(C#N)c3c(n2)n(-c2ccccc2OC)c(=O)n3Cc2ccccc2)cc1 [Compound 15c, 7-Benzyl-2-(4-ethoxyphenyl)-9-(2-methoxyphenyl)-8-oxopurine-6-carbonitrile] | 164 to 166 °C | – | –
CCOC(=O)Oc1nc2c(C#N)nc(-c3ccc(OCC)cc3)nc2n1-c1ccccc1OC [Compound 17a, 6-Cyano-2-(4-ethoxyphenyl)-9-(2-methoxyphenyl)purin-8-yl ethyl carbonate] | 270 to 272 °C | – | –
C=CCn1oc(=O)nc1-c1nc(-c2ccc(OCC)cc2)nc2c1n(CC=C)c(=O)n2-c1ccccc1OC [Compound 25a, 2-Allyl-3-[7-allyl-2-(4-ethoxyphenyl)-9-(2-methoxyphenyl)-8-oxopurin-6-yl]-1,2,4-oxadiazol-5-one] | 88 to 90 °C | – | –
CCOc1ccc(-c2nc(C(N)=O)c3nc(SC(C)=O)n(-c4ccccc4)c3n2)cc1 [Compound 26a, 8-(Acetylthio)-2-(4-ethoxyphenyl)-9-phenylpurine-6-carboxamide] | – | 41.6 ± 11.6 µM | IC50 (H1975 lung cancer cells; [3]): 41.6 ± 11.6 µM
CCOc1ccc(-c2nc(C#N)c3nc(S)n(-c4ccccc4)c3n2)cc1 [Compound 27a, 2-(4-Ethoxyphenyl)-8-mercapto-9-phenylpurine-6-carboxnitrile] | 278.5 to 280 °C | – | –
CCOc1ccc(-c2nc(C#N)c3nc(SC(=O)OCc4ccccc4)n(-c4ccccc4)c3n2)cc1 [Compound 28a, 8-(Benzyloxycarbonylthio)-2-(4-ethoxyphenyl)-9-phenylpurine-6-carboxnitrile] | 179.2 to 180.4 °C | – | –
CCOc1ccc(-c2nc(C#N)c3nc(N)n(-c4ccccc4OC)c3n2)cc1 [Compound 33a, 8-Amino-2-(4-ethoxyphenyl)-9-(2-methoxyphenyl)purine-6-carbonitrile] | 297 to 299 °C | – | –
CCOc1ccc(-c2nc(C#N)c3nc(N4CCOCC4)n(-c4ccccc4OC)c3n2)cc1 [Compound 33b, 2-(4-Ethoxyphenyl)-9-(2-methoxyphenyl)-8-morpholinopurine-6-carbonitrile] | 273 to 275 °C | – | IC50 (H1975 lung cancer cells; [3]): 74 µM
CCOc1ccc(-c2nc(C#N)c3nc(NC(=O)OC(C)(C)C)n(-c4ccccc4OC)c3n2)cc1 [Compound 34a, Tert-butyl (6-cyano-2-(4-ethoxyphenyl)-9-(2-methoxyphenyl)purin-8-yl)carbamate] | 260 to 262 °C (dec.) | – | –
